Laboratory results published in ChEMBL document CHEMBL4613209, “Quinolone hybrids and their anti-cancer activities: An overview” (Eur J Med Chem, 2019).

Key:
Format in all cases: functional, cell-based
[1] = tested on: L1210; assay: Cytotoxicity against mouse L1210 cells assessed as reduction in cell viability
[2] = tested on: HL-60; assay: Cytotoxicity against human HL60 cells assessed as reduction in cell viability
[3] = tested on: CHO; assay: Cytotoxicity against CHO cells assessed as reduction in cell viability; details: Cricetulus griseus
[4] = tested on: L1210; assay: Antiproliferative activity against mouse L1210 cells after 24 to 72 hrs by MTT assay
[5] = tested on: Hep 3B2; assay: Antiproliferative activity against human Hep3B cells after 24 to 72 hrs by MTT assay
[6] = tested on: HL-60; assay: Antiproliferative activity against human HL60 cells after 24 to 72 hrs by MTT assay
[7] = tested on: SMMC-7721; assay: Antiproliferative activity against human SMMC7721 cells after 24 to 72 hrs by MTT assay

Q: How did the IC50 [1] turn out when O=C(N/N=C/c1ccc(F)cc1)c1cn(C2CC2)c2cc(N/N=C/c3ccc(F)cc3)c(F)cc2c1=O was run?
A: 1.5 to 23.5 µM

Q: And the IC50 [2]?
A: 1.5 to 23.5 µM

Q: What about the IC50 [3] of the same compound?
A: 1.5 to 23.5 µM

Q: With O=C(N/N=C/c1ccc2c(c1)OCO2)c1cn(C2CC2)c2cc(N/N=C/c3ccc4c(c3)OCO4)c(F)cc2c1=O as the compound, how does the IC50 [1] read?
A: 1.5 to 23.5 µM

Q: What about the IC50 [2] of the same compound?
A: 1.5 to 23.5 µM

Q: And the IC50 [3]?
A: 1.5 to 23.5 µM

Q: Which IC50 [1] does the source give for COc1ccc(/C=N/NC(=O)c2cn(C3CC3)c3cc(N/N=C/c4ccc(OC)cc4)c(F)cc3c2=O)cc1 here?
A: 1.5 to 23.5 µM

Q: What about the IC50 [2] of the same compound?
A: 1.5 to 23.5 µM

Q: What about the IC50 [3] of the same compound?
A: 1.5 to 23.5 µM

Q: For O=C(N/N=C/c1ccccc1)c1cn(C2CC2)c2cc(N/N=C/c3ccccc3)c(F)cc2c1=O, which IC50 [1] is on record?
A: 1.5 to 23.5 µM

Q: And the IC50 [2]?
A: 1.5 to 23.5 µM

Q: What about the IC50 [3] of the same compound?
A: 1.5 to 23.5 µM

Q: Which IC50 [1] does the source give for COc1cc(/C=N/NC(=O)c2cn(C3CC3)c3cc(N/N=C/c4cc(OC)c(OC)c(OC)c4)c(F)cc3c2=O)cc(OC)c1OC here?
A: 1.5 to 23.5 µM

Q: And the IC50 [2]?
A: 1.5 to 23.5 µM

Q: And the IC50 [3]?
A: 1.5 to 23.5 µM

Q: With CCn1cc(C(=O)N/N=C/c2ccc(O)c(OC)c2)c(=O)c2cc(F)c(N3CCNCC3)cc21 as the compound, how does the IC50 [4] read?
A: 1.4 to 52.3 µM

Q: And the IC50 [5]?
A: 1.4 to 52.3 µM

Q: And the IC50 [6]?
A: 1.4 to 52.3 µM

Q: What about the IC50 [7] of the same compound?
A: 1.4 to 52.3 µM

Q: Which IC50 [1] does the source give for COc1cc(/C=N/NC(=O)c2cn(C3CC3)c3cc(N/N=C/c4ccc(O)c(OC)c4)c(F)cc3c2=O)ccc1O here?
A: 1.5 to 2.8 µM

Q: What about the IC50 [2] of the same compound?
A: 1.5 to 2.8 µM

Q: And the IC50 [3]?
A: 1.5 to 2.8 µM

Q: What does the source list for CC1COc2c(N3CCN(C)CC3)c(F)cc3c(=O)c(-c4nnc(N/N=C/c5ccc(C(=O)O)cc5)[nH]4)cn1c23 (stereo not given)?
A: IC50 [4]: 1.6 µM; IC50 [5]: 1.4 to 52.3 µM; IC50 [6]: 4.2 µM; IC50 [7]: 1.4 µM

Q: CCn1cc(C(=O)N/N=C/c2ccccc2OC)c(=O)c2cc(F)c(N3CCNCC3)cc21 was tested. Which IC50 [4] did it give?
A: 1.4 to 52.3 µM

Q: What about the IC50 [5] of the same compound?
A: 1.4 to 52.3 µM

Q: What about the IC50 [6] of the same compound?
A: 1.4 to 52.3 µM

Q: And the IC50 [7]?
A: 1.4 to 52.3 µM

Q: CCn1cc(C(=O)N/N=C/c2ccc(F)cc2)c(=O)c2cc(F)c(N3CCNCC3)cc21 was tested. Which IC50 [4] did it give?
A: 1.4 to 52.3 µM

Q: And the IC50 [5]?
A: 1.4 to 52.3 µM

Q: What about the IC50 [6] of the same compound?
A: 1.4 to 52.3 µM

Q: And the IC50 [7]?
A: 1.4 to 52.3 µM

Q: Which results are given for CCn1cc(C(=O)N/N=C/c2ccccc2O)c(=O)c2cc(F)c(N3CCNCC3)cc21?
A: IC50 [4]: 1.4 to 52.3 µM; IC50 [5]: 1.4 to 52.3 µM; IC50 [6]: 1.4 to 52.3 µM; IC50 [7]: 1.4 to 52.3 µM

Q: Which results are given for COc1ccccc1/C=N/NC(=O)c1cn(C2CC2)c2cc(N/N=C/c3ccccc3OC)c(F)cc2c1=O?
A: IC50 [1]: 1.5 to 23.5 µM; IC50 [2]: 1.5 to 23.5 µM; IC50 [3]: 1.5 to 23.5 µM

Q: Which results are given for CCn1cc(C(=O)N/N=C/c2ccc([N+](=O)[O-])cc2)c(=O)c2cc(F)c(N3CCNCC3)cc21?
A: IC50 [4]: 1.4 to 52.3 µM; IC50 [5]: 1.4 to 52.3 µM; IC50 [6]: 1.4 to 52.3 µM; IC50 [7]: 1.4 to 52.3 µM

Q: COc1cc(/C=N/Nc2nnc(-c3cn4c5c(c(N6CCN(C)CC6)c(F)cc5c3=O)OCC4C)[nH]2)cc(OC)c1OC (stereo not given) was tested. Which IC50 [4] did it give?
A: 1.4 to 52.3 µM

Q: What about the IC50 [5] of the same compound?
A: 1.4 to 52.3 µM

Q: What about the IC50 [6] of the same compound?
A: 1.4 to 52.3 µM

Q: What about the IC50 [7] of the same compound?
A: 1.4 to 52.3 µM

Q: O=C(N/N=C/c1ccc(Cl)cc1)c1cn(C2CC2)c2cc(N/N=C/c3ccc(Cl)cc3)c(F)cc2c1=O was tested. Which IC50 [1] did it give?
A: 1.5 to 23.5 µM

Q: And the IC50 [2]?
A: 1.5 to 23.5 µM

Q: And the IC50 [3]?
A: 1.5 to 23.5 µM

Q: For CCn1cc(C(=O)N/N=C/c2ccc(Cl)cc2)c(=O)c2cc(F)c(N3CCNCC3)cc21, which IC50 [4] is on record?
A: 1.4 to 52.3 µM

Q: What about the IC50 [5] of the same compound?
A: 1.4 to 52.3 µM

Q: And the IC50 [6]?
A: 1.4 to 52.3 µM

Q: And the IC50 [7]?
A: 1.4 to 52.3 µM

Q: With CCn1cc(C(=O)N/N=C/c2ccccc2)c(=O)c2cc(F)c(N3CCNCC3)cc21 as the compound, how does the IC50 [4] read?
A: 1.4 to 52.3 µM

Q: And the IC50 [5]?
A: 1.4 to 52.3 µM

Q: And the IC50 [6]?
A: 1.4 to 52.3 µM

Q: What about the IC50 [7] of the same compound?
A: 1.4 to 52.3 µM

Q: Which results are given for CCn1cc(C(=O)N/N=C/c2cc(OC)c(OC)c(OC)c2)c(=O)c2cc(F)c(N3CCNCC3)cc21?
A: IC50 [4]: 1.4 to 52.3 µM; IC50 [5]: 1.4 to 52.3 µM; IC50 [6]: 1.4 to 52.3 µM; IC50 [7]: 1.4 to 52.3 µM

Q: Which results are given for Cc1ccc(/C=N/NC(=O)c2cn(C3CC3)c3cc(N/N=C/c4ccc(C)cc4)c(F)cc3c2=O)cc1?
A: IC50 [1]: 1.5 to 23.5 µM; IC50 [2]: 1.5 to 23.5 µM; IC50 [3]: 1.5 to 23.5 µM

Q: What does the source list for CCn1cc(C(=O)N/N=C/c2ccc3c(c2)OCO3)c(=O)c2cc(F)c(N3CCNCC3)cc21?
A: IC50 [4]: 1.4 to 52.3 µM; IC50 [5]: 1.4 to 52.3 µM; IC50 [6]: 1.4 to 52.3 µM; IC50 [7]: 1.4 to 52.3 µM

Q: How did the IC50 [4] turn out when CCn1cc(C(=O)N/N=C/c2ccc(OC)cc2)c(=O)c2cc(F)c(N3CCNCC3)cc21 was run?
A: 1.4 to 52.3 µM

Q: What about the IC50 [5] of the same compound?
A: 1.4 to 52.3 µM

Q: And the IC50 [6]?
A: 1.4 to 52.3 µM

Q: And the IC50 [7]?
A: 1.4 to 52.3 µM
